The record followed here is ChEMBL document CHEMBL1743341, “Cytochrome p450 enzymes mechanism based inhibitors: common sub-structures and reactivity” (Curr Drug Metab, 2005).

Each structure is given as a SMILES string.

In one data set the target is T1, CYP1A2 (Rattus norvegicus, UniProt P04799).
T1 sequence (P04799 whole entry): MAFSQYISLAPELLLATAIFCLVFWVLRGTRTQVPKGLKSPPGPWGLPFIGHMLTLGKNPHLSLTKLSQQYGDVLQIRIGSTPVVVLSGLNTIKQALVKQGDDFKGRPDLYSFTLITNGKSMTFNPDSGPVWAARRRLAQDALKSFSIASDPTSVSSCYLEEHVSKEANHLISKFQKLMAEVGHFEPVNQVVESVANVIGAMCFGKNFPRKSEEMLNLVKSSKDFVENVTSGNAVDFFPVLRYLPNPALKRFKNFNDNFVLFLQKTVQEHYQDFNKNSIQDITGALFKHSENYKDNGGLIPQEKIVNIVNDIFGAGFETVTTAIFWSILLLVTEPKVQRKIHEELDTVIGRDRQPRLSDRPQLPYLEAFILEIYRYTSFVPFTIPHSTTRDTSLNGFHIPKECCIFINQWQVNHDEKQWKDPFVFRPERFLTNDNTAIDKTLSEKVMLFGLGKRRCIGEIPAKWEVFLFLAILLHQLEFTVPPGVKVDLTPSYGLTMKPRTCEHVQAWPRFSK
The data set can be described thus: (§1) Mechanism based inhibition of rat cytochrome P450 CYP1A2 measured by zolmitriptan metabolism. Format: ADME. The note with it: rat, probe zolmitriptan (metabolism).

A further data set has as its target T2, Cytochrome P450 1A2 (Rattus norvegicus, UniProt P04799).
T2 sequence (P04799 whole entry): T1 sequence (P04799 whole entry)
The data set is described as §1. Format: ADME.

For a further data set, the target named is Cytochrome P450 3A4 (Homo sapiens, UniProt P08684). Description: (§2) Mechanism based inhibition of human cytochrome P450 CYP3A4 measured by 7BFC O-debenzylation. The format is ADME.
A further data set deals with CYP3A4 (Homo sapiens, UniProt P08684). The description is as §2. Format: ADME. To be noted: human, probe 7BFC (O-debenzylation).
A further data set deals with T3, CYP2B6 (Homo sapiens, UniProt P20813).
T3 sequence (P20813 whole entry): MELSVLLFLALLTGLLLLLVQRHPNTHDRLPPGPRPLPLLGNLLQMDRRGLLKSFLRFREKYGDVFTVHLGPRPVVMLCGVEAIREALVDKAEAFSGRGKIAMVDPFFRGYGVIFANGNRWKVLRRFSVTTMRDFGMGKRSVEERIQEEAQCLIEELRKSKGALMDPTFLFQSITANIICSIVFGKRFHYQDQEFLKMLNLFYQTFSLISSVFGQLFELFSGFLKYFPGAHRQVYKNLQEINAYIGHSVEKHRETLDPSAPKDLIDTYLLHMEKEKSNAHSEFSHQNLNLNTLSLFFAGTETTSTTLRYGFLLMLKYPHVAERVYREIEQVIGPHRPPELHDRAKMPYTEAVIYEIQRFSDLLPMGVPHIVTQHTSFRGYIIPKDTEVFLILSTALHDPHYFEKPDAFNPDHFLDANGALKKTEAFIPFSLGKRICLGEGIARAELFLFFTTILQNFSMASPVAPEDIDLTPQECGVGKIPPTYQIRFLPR
The data set can be described thus: Mechanism based inhibition of human cytochrome P450 CYP2B6 measured by 7-EFC O-deethylation activity. The format is ADME. To be noted: probe 7-EFC (O-deethylation).

Another data set concerns the target Cytochrome P450 3A11 (Mus musculus, UniProt Q64459). Description: Mechanism based inhibition of mouse cytochrome P450 CYP3A11. The format is ADME.
For data set [1], the target named is T4, Cytochrome P450 2E1 (Rattus norvegicus, UniProt P05182). Description: Mechanism based inhibition of rabbit cytochrome P450 CYP2E1 measured by P-nitrophenol (PNP) hydroxylase activity. Format: ADME, Oryctolagus cuniculus. The note with it: target entry is the homologue from another species.
The target of data set [2] is T4, Cytochrome P450 2E1. The data set can be described thus: Mechanism based inhibition of rat cytochrome P450 CYP2E1. The format is ADME.
Data set [3] deals with Cholesterol side-chain cleavage enzyme, mitochondrial (Bos taurus, UniProt P00189). The data set can be described thus: Mechanism based inhibition of bovine cytochrome P450 CYP11A1. The format is ADME. The note with it: cattle.
The next data set addresses Cytochrome P450 2C5 (Oryctolagus cuniculus, UniProt P00179). Description: Mechanism based inhibition of rabbit cytochrome P450 CYP2C5. The format is ADME.
Data set [4] concerns the target T5, Cytochrome P450 2B4 (Oryctolagus cuniculus, UniProt P00178).
T5 sequence (P00178 whole entry): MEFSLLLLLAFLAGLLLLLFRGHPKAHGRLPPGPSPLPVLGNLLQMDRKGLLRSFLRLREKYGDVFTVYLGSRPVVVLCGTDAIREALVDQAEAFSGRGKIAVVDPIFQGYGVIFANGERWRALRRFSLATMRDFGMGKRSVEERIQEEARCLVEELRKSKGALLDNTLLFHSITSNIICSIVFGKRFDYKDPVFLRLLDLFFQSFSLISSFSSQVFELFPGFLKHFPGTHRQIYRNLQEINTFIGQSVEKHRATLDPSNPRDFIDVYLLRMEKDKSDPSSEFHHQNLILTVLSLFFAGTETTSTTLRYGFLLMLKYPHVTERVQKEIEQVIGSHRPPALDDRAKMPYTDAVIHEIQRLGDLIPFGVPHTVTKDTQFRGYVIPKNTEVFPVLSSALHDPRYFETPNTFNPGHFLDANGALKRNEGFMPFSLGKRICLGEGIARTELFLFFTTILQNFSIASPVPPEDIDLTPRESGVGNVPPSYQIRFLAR
Description: (§3) Mechanism based inhibition of rabbit cytochrome P450 CYP2B4 1-Phenylethanol oxidation was used as probe activity. Format: ADME.

The target in the next data set is T6, CYP2B4 (Oryctolagus cuniculus, UniProt P00178).
T6 sequence (P00178 whole entry): T5 sequence (P00178 whole entry)
The description is as §3. The format is ADME. The note with it: rabbit, probe 1-phenylethanol (oxidation).

Data set [5] deals with T5, Cytochrome P450 2B4. The data set can be described thus: Mechanism based inhibition of rabbit cytochrome P450 CYP2B4 partition ratio. The format is ADME.
A further data set deals with T7, Cytochrome P450 2C11 (Rattus norvegicus, UniProt P08683).
T7 sequence (P08683 whole entry): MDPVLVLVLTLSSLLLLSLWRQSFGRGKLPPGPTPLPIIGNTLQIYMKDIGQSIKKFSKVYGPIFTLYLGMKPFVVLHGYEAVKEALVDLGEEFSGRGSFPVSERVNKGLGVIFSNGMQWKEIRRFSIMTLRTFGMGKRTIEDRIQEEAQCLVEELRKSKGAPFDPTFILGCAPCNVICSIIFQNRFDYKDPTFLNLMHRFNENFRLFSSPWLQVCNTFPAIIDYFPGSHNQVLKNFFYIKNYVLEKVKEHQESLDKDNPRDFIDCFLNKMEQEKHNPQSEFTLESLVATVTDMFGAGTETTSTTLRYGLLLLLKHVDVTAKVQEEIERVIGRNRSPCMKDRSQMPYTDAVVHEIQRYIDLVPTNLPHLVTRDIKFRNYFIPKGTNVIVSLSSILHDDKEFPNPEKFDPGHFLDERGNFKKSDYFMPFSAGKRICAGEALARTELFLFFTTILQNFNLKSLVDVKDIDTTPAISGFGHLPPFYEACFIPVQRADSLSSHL
Description: Mechanism based inhibition of rat cytochrome P450 CYP2C11 measured by testosterone hydroxylation at positions 2-alpha and 16-alpha. The format is ADME.

A further data set deals with Cytochrome P450 3A2 (Rattus norvegicus, UniProt P05183). Description: Mechanism based inhibition of rat cytochrome P450 CYP3A2 measured by testosterone hydroxylation at positions 2-beta and 6-beta. The format is ADME.

In general, kinact refers to the maximal first-order rate at which the target is inactivated.

T4 sequence (P05182 whole entry): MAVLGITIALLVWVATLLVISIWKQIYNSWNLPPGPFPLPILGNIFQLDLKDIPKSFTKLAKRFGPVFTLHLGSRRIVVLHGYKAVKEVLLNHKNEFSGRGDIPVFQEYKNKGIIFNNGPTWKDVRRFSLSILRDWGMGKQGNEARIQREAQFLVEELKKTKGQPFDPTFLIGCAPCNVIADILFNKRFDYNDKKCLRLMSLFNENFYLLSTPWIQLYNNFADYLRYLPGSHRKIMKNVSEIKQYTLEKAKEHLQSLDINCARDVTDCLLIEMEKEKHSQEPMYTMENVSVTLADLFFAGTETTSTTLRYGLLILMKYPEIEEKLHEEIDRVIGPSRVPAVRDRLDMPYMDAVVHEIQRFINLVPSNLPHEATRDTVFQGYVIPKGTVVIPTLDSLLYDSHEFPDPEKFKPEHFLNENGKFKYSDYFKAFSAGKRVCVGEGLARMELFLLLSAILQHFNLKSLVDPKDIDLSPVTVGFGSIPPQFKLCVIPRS
Chain of Cytochrome P450 3A11 (Q64459 whole entry): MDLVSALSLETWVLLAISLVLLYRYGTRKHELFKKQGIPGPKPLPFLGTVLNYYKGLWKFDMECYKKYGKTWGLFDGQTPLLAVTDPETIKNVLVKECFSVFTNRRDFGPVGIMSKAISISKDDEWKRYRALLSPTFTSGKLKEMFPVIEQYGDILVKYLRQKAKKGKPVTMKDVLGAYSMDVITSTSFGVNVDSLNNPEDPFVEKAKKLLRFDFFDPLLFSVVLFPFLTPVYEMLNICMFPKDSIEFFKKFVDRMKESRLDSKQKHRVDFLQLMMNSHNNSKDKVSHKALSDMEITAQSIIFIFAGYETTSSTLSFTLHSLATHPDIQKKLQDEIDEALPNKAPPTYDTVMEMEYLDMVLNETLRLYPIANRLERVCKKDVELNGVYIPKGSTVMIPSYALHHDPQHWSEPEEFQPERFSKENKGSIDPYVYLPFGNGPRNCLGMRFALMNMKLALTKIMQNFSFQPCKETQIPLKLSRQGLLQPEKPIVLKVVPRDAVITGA
Chain of Cytochrome P450 3A2 (P05183 whole entry): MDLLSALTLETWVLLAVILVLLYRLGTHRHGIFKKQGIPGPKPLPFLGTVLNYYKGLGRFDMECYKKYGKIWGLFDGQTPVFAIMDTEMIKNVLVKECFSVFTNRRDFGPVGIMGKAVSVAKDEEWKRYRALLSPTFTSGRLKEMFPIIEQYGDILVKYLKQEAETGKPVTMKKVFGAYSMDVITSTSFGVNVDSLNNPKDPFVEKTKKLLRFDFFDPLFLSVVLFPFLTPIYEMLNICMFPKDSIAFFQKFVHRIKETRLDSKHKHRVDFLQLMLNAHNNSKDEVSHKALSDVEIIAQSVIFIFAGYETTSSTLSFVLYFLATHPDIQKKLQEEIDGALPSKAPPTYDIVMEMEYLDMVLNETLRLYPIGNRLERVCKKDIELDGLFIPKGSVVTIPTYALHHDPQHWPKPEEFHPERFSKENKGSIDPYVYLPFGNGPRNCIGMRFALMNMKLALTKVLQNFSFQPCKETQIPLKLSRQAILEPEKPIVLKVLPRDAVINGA
Chain of CYP3A4 (P08684 whole entry): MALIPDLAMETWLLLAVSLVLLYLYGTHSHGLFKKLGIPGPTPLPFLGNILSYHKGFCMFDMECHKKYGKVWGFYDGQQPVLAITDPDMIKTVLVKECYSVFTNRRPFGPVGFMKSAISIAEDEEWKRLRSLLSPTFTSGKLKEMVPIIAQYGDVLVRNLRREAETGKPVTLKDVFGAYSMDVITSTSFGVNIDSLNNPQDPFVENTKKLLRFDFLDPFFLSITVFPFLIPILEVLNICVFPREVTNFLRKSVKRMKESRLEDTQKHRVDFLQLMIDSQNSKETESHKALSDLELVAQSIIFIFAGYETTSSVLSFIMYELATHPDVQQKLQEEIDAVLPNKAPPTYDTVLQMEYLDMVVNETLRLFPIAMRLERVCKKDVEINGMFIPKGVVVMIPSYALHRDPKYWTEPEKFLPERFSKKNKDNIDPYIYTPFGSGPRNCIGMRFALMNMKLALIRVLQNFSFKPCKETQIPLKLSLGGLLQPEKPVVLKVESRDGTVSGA
Chain of Cytochrome P450 3A4 (P08684 whole entry): as above
Chain of Cytochrome P450 2C5 (P00179 whole entry): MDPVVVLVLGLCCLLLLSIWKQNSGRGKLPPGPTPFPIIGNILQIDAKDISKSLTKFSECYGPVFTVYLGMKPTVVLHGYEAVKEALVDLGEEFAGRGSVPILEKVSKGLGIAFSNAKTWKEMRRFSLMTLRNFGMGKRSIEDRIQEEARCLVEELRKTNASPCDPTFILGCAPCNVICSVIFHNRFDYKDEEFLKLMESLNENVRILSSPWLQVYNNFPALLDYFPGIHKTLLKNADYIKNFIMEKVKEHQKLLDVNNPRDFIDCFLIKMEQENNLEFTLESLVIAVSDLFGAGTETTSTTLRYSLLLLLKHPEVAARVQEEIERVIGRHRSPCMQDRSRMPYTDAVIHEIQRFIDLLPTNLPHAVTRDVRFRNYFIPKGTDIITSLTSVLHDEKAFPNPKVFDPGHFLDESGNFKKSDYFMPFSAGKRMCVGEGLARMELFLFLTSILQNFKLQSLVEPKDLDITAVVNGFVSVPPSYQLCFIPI
Chain of Cholesterol side-chain cleavage enzyme, mitochondrial (P00189 whole entry): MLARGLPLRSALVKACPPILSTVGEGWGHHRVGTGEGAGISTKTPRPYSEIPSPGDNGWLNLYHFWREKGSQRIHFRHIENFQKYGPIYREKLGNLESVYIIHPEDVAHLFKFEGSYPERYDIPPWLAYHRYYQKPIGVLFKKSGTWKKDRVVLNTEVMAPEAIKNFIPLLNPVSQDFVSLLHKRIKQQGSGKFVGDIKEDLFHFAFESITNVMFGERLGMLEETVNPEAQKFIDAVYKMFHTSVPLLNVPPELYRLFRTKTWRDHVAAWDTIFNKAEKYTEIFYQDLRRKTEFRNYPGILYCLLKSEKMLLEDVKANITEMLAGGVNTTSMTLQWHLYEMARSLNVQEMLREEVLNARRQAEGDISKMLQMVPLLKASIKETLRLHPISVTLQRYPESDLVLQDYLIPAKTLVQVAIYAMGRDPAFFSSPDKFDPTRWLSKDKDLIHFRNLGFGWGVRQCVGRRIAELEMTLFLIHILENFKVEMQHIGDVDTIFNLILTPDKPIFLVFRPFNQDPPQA

As for `COCCCC/C(=N\OCCN)c1ccc(C(F)(F)F)cc1` [FLUVOXAMINE], the kinact on CYP1A2 is 0.00267 s⁻¹. At Cytochrome P450 1A2, this compound had a Ki of 57.4 µM.
For `CC1(C)C=Cc2c(ccc3c2OC[C@@H](c2ccc(O)cc2O)C3)O1` [GLABRIDIN], on Cytochrome P450 3A4, the Ki was 7 µM. Further, the kinact at CYP3A4 was 0.00233 s⁻¹; on CYP2B6, 0.00133 s⁻¹.
As for `C=C(C)[C@@H]1CCC(C)=C[C@H]1c1c(O)cc(CCCCC)cc1O` [CANNABIDIOL], at Cytochrome P450 3A11, the mechanism based inhibition result is “Cytochrome P450 mechanistic inhibitor: PMID 9778318”.
Turning to `CC(C)(C)N=C=S`, the mechanism based inhibition entry on Cytochrome P450 2E1 [1] and at Cytochrome P450 2E1 [2] was “Cytochrome P450 mechanistic inhibitor: PMID 9778311” in each case.
On to `CC(C)CCS[C@@H](C)[C@H]1CC[C@H]2[C@@H]3CC=C4C[C@@H](O)CC[C@]4(C)[C@H]3CC[C@]12C`, for which, in data set [3], the mechanism based inhibition result is reported as “Cytochrome P450 mechanistic inhibitor: PMID 7599132”.
`C[C@]12CC[C@H]3[C@@H](CC=C4C[C@@H](O)CC[C@@]43C)[C@@H]1CC[C@@H]2C(=O)C(Cl)Cl`: the mechanism based inhibition result at Cytochrome P450 2C5 was “Cytochrome P450 mechanistic inhibitor: PMID 9168258”.
Turning to `COC(=O)c1csc2snnc12`, on Cytochrome P450 2B4 [4], the Ki is 2000 µM. The kinact on CYP2B4 is 0.000667 s⁻¹. Moreover, the partition_ratio at Cytochrome P450 2B4 [5] came to 2100.
As for `[N]=O` [NITRIC OXIDE], the mechanism based inhibition entry on Cytochrome P450 2C11 and at Cytochrome P450 3A2 was “Cytochrome P450 mechanistic inhibitor: PMID 9400024” in each case.
